Assay results: patent US11679118B2, “Parasite therapy” (priority 2009, dated 2023)

Legend:
[1] = tested on: D. fragilis or B. hominis; assay: Treatment of patients with D. fragilis and/or B. hominis infection (combined infection), symptoms and overall outcome; type: in vivo, Dientamoeba fragilis; Blastocystis hominis; settings: for outcome of previous treatments: patient with combined B. hominis and D. fragilis infection, 3 different treatments before referral; for stool examination after previous treatments / symptoms after previous treatments: patient, various treatments before referral
Experimental: In another aspect the present invention relates to triple combinations of drugs. In some circumstances, especially with resistance even triple therapies may need to be combined to effect a cure. […] Again, the treatment requires 1 mg-5 grams/day of each of the components from 1-50 days. Other triple combinations can include iodoquinol, furazolidone and nitazoxanide. Combinations can also include diloxinide furoate, doxycycline and metronidazole in various triple combinations.
(§1) The patient was brought into the clinic and after bowel preparation a transcolonoscopic infusion of furazolidone, nitazoxanide and secnidazole was carried out.
The patient was referred to the Clinic for treatment. Symptoms were quite severe and they were given a combination of four medications including Septrin DS (cotrimoxazole) two times a day, diloxanide furoate 500 mg three times a day and secnidazole 400 mg three times a day together with doxycycline 50 mg two times a day.

Giardia lamblia = assay: Treatment of a patient with chronic Giardiasis, follow-up by stool tests and symptoms; type: in vivo; settings: previous speculative treatment in adequate doses
From the text: A patient with weight loss and diarrhea presented for an endoscopy.

B. hominis [2] = assay: Treatment of patients with B. hominis infection, follow-up by stool test and symptoms; type: in vivo, Blastocystis hominis
D. fragilis = assay: Treatment of patients with D. fragilis infection, follow-up by stool test; type: in vivo, Dientamoeba fragilis; settings: clinical experience and usage; also frequently ineffective as monotherapy
Experimental: as §1

B. hominis [3] = settings: in Egypt; Rossignol et al 2005; cited from earlier work
[4] = person, 400 mg bid for 14 days, at 6 months

Cc1ncc([N+](=O)[O-])n1CCO [metronidazole]
outcome of previous treatments [1]: failed | stool examination after previous treatments [1]: ongoing B. hominis and D. fragilis | symptoms after previous treatments [1]: improved but then they recurred | Giardia lamblia infection, histologically at endoscopy (Giardia lamblia): continued to have Giardia lamblia infection | diarrhea (Giardia lamblia): did not settle | outcome of previous therapies (B. hominis [2]; resistant Blastocystis hominis, multiple therapies before referral): failed

O=C1OCCN1/N=C/c1ccc([N+](=O)[O-])o1 [furazolidone]
stool examination after previous treatments [1]: ongoing B. hominis and D. fragilis | symptoms after previous treatments [1]: improved but then they recurred

CCS(=O)(=O)CCn1c([N+](=O)[O-])cnc1C [tinidazole]
outcome of previous treatments [1]: failed

CCn1cc(C(=O)O)c(=O)c2cc(F)c(N3CCNCC3)cc21 [norfloxacin]
effectiveness in treatment against Dientamoeba fragilis (D. fragilis): effective | effectiveness in treatment against Blastocystis hominis (B. hominis [2]; clinical experience and usage, also frequently ineffective as monotherapy): effective | stool test for B. hominis (B. hominis [2]; [4]): negative for B. hominis again | symptoms (B. hominis [2]; [4]): still asymptomatic | stool test for B. hominis (B. hominis [2]; person, 400 mg bid for 14 days, follow up at 4 weeks): negative for B. hominis

CC(=O)Oc1ccccc1C(=O)Nc1ncc([N+](=O)[O-])s1 [nitazoxanide]
effectiveness against Blastocystis hominis (B. hominis [3]): effective | stool examination after previous treatments [1]: ongoing B. hominis and D. fragilis | symptoms after previous treatments [1]: improved but then they recurred
